According to ChEMBL document CHEMBL3714749, “Quinoxaline derivatives as gpr6 modulators” (2014):

test system: Rattus norvegicus; experiment: Reversal of haloperidol-induced catalepsy in Sprague-Dawley rat at 10 mg/kg, sc after 30 mins relative to control; assay type: functional; conditions: 0.5 h

Work on `N#Cc1ccc2nc(NC3CC3)c(N3CCC(Cc4ccc(F)cc4F)CC3)nc2c1` yielded an inhibition in vivo at 10 mg/kg of 36.9%.

test system: Rattus norvegicus; experiment: Reversal of haloperidol-induced catalepsy in Sprague-Dawley rat at 10 mg/kg, sc after 120 mins relative to control; assay type: functional; conditions: 2 h

`N#Cc1ccc2nc(NC3CC3)c(N3CCC(Cc4ccc(F)cc4F)CC3)nc2c1` gave an inhibition in vivo at 10 mg/kg of 25.1%.

biological target: G-protein coupled receptor 6 (Homo sapiens, UniProt P46095); experiment: Activity at GPR6 (unknown origin) expressed in CHOK1 cells assessed as inhibition of constitutive cAMP activity incubated for 45 mins by HTRF based cAMP detection assay; assay type: functional, cell-based, CHO-K1; conditions: not given
Sequence (P46095 whole entry): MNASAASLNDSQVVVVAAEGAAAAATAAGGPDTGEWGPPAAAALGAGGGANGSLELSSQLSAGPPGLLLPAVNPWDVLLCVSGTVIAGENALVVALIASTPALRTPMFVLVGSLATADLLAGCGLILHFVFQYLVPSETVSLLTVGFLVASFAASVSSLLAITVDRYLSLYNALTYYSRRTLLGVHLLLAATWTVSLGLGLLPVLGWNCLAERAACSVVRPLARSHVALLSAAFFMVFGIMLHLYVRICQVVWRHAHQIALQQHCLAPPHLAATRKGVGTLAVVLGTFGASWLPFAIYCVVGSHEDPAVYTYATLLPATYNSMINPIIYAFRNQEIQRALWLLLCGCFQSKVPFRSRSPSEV

Point of comparison: `COCCNc1nc2ccncc2nc1N1CCC(Oc2ccc(F)cc2F)CC1`, IC50 670 nM. Against it:
- N#Cc1ccc2nc(NC3CC3)c(N3CCC(Cc4ccc(F)cc4F)CC3)nc2c1 — 10-fold lower, 64 nM
- Cc1c(Cl)cc(F)cc1S(=O)(=O)N1CCN(c2nc3cc(C#N)ccc3nc2NC2CC2)CC1 — within 1.5-fold, 960 nM
- COc1ccc(CN2CCN(c3nc4cnc(C(=O)N(C)C)cc4nc3NC3CC3)CC2)c(F)c1 — within 1.5-fold, 939 nM
- Cc1nccc2nc(NC3CC3)c(N3CCC(C(F)(F)c4cc(F)ccc4F)CC3)nc12 — 15-fold lower, 45 nM
- Fc1ccc(CC2CCN(c3nc4cc(F)c(F)cc4nc3NC3CC3)CC2)c(F)c1 — 4.8-fold lower, 140 nM
- Fc1ccc(F)c(CN2CCN(c3nc4ccncc4nc3NC3CC3)CC2)c1 — 4.8-fold lower, 140 nM
- O=C(c1cc(F)ccc1Cl)C1CCN(c2nc3cnccc3nc2NC2CC2)CC1 — 11-fold lower, 62 nM
- CN(C)C(=O)c1cc2nc(NC3CC3)c(N3CCC([C@@H](F)c4ccc(F)cc4F)CC3)nc2cn1 — 84-fold lower, 8 nM
- N#Cc1ccc2nc(NCC(F)F)c(N3CCC(Cc4ccc(F)cc4F)CC3)nc2c1 — 9.4-fold lower, 71 nM
- Fc1ccc(CC2CCN(c3nc4ccncc4nc3NCC(F)F)CC2)c(F)c1 — 8.6-fold lower, 78 nM
- COCCNc1nc2ccncc2nc1N1CCC(Cc2ccc(F)cc2F)CC1 — 22-fold lower, 30 nM
- O=C(c1nccc2nc(NC3CC3)c(N3CCC([C@H](F)c4ccc(F)cc4F)CC3)nc12)N1CCOCC1 — 110-fold lower, 6 nM
- CCNc1nc2cnccc2nc1N1CCC(Oc2ccc(OC)cc2F)CC1 — 17-fold lower, 39 nM
- N#Cc1ccc2nc(NC3CC3)c(N3CCC(Cn4cc(Cl)ccc4=O)CC3)nc2c1 — within 1.5-fold, 930 nM
- N#Cc1ccc2nc(NC3CC3)c(N3CCN(S(=O)(=O)c4cc(C(F)(F)F)ccc4Cl)CC3)nc2c1 — 2-fold higher, 1360 nM
- O=C(c1cccc(Cl)c1)C1CCN(c2nc3cnccc3nc2NC2CC2)CC1 — 16-fold higher, 11000 nM
- CC(C)Nc1nc2cnncc2nc1N1CCC(Oc2ccc(C#N)cc2F)CC1 — 9.3-fold lower, 72 nM
- N#Cc1ccc2nc(NC3CC3)c(N3CCN(S(=O)(=O)c4ccc(C(F)(F)F)cc4Cl)CC3)nc2c1 — 1.9-fold higher, 1300 nM
- Cc1cc2nc(NC3CC3)c(N3CCC(C(F)c4ccc(F)cc4F)CC3)nc2cn1 (stereo unspecified) — 96-fold lower, 7 nM
- N#Cc1ccc2nc(NC3CC3)c(N3CCN(S(=O)(=O)c4ccccc4F)CC3)nc2c1 — 6.9-fold higher, 4590 nM
- COc1cccc(OC2CCN(c3nc4cnncc4nc3NC(C)C)CC2)c1 — within 1.5-fold, 1000 nM
- O=C(c1ccccc1Cl)C1CCN(c2nc3cnccc3nc2NC2CC2)CC1 — 10-fold lower, 67 nM
- Fc1ccc(Cl)cc1C(F)(F)C1CCN(c2nc3cnccc3nc2NC2CC2)CC1 — 15-fold lower, 46 nM
- N#Cc1ccc2nc(N3CCN(C(=O)c4ccc(Cl)cc4)CC3)c(NC3CC3)nc2c1 — 2-fold lower, 340 nM
- O=C(c1ccccc1Br)C1CCN(c2nc3cnccc3nc2NC2CC2)CC1 — 8.6-fold lower, 78 nM
- Cc1cc2nc(NC3CC3)c(N3CCC([C@@H](F)c4ccc(F)cc4F)CC3)nc2cn1 — 110-fold lower, 6 nM
- CSc1ccc(OC2CCN(c3nc4cnncc4nc3NC3CC3)CC2)c(F)c1 — 48-fold lower, 14 nM
- N#Cc1ccc(OC2CCN(c3nc4cnccc4nc3NC3CC3)CC2)cc1 — 2.9-fold higher, 1940 nM
- N#Cc1cccc(S(=O)(=O)N2CCN(c3nc4cc(C#N)ccc4nc3NC3CC3)CC2)c1 — 3.8-fold higher, 2540 nM
- Fc1ccc([C@@H](F)C2CCN(c3nc4cnccc4nc3NC3CC3)CC2)c(F)c1 — 28-fold lower, 24 nM
- CC(C)(C)Nc1nc2cc(C#N)ncc2nc1N1CCC(Oc2ccc(F)cc2F)CC1 — within 1.5-fold, 538 nM
- Fc1ccc(CC2CCN(c3nc4cnc(Cl)cc4nc3NC3CC3)CC2)c(F)c1 — 22-fold lower, 31 nM
- CN(C)C(=O)c1cc2nc(NC3CC3)c(N3CCC([C@H](F)c4ccc(F)cc4F)CC3)nc2cn1 — 67-fold lower, 10 nM
- Fc1cc(Cl)ccc1OC1CCN(c2nc3cnncc3nc2NC2CC2)CC1 — 22-fold lower, 30 nM
- O=C(c1ccc(F)c(F)c1)C1CCN(c2nc3cnccc3nc2NC2CC2)CC1 — 13-fold higher, 8390 nM
- Cc1nccc2nc(NC3CC3)c(N3CCC(Cc4ccc(F)cc4F)CC3)nc12 — 340-fold lower, 2 nM
- N#Cc1ccc2nc(NCCC(F)(F)F)c(N3CCN(Cc4ccc(F)cc4F)CC3)nc2c1 — 1.7-fold lower, 390 nM
- CSc1ccc(OC2CCN(c3nc4cnccc4nc3NC3CC3)CC2)cc1 — 4.6-fold lower, 146 nM
- CN(C)C(=O)c1cc2nc(NC3CC3)c(N3CCN(C(=O)c4cc(F)ccc4Cl)CC3)nc2cn1 — 2.3-fold higher, 1570 nM
- Cc1cc2nc(NC3CC3)c(N3CCC(S(=O)(=O)c4ccc(F)cc4)CC3)nc2cn1 — 7.2-fold lower, 93 nM
- Fc1ccc(C(F)(F)C2CCN(c3nc4cnccc4nc3NC3CC3)CC2)c(F)c1 — 42-fold lower, 16 nM
- N#Cc1ccc2nc(NC3CC3)c(N3CCN(S(=O)(=O)c4ccccc4C#N)CC3)nc2c1 — 6.5-fold higher, 4340 nM
- Cc1ccc(C)c(CN2CCN(c3nc4cnccc4nc3NC3CC3)CC2)c1 — 1.8-fold lower, 380 nM
- Clc1ccccc1OC1CCN(c2nc3cnccc3nc2NC2CC2)CC1 — 2.3-fold higher, 1510 nM
- Cc1cc2nc(NC3CC3)c(N3CCC([C@H](F)c4cc(F)ccc4F)CC3)nc2cn1 — 61-fold lower, 11 nM
- CC(C)Nc1cc(Cl)cc(C(=O)C2CCN(c3nc4ccc(C#N)cc4nc3NC(C)C)CC2)c1 — 2.4-fold lower, 276 nM
- CC(C)Nc1nc2cc(C#N)ncc2nc1N1CCC(C(=O)c2cc(F)cc(F)c2)CC1 — 24-fold lower, 28 nM
- Clc1ccc(Cl)c(CN2CCN(c3nc4cccc(Br)c4nc3NC3CC3)CC2)c1 — 2.4-fold higher, 1640 nM
- CC(C)Nc1nc2cnncc2nc1N1CCC(C(F)c2ccc(F)cc2F)CC1 (stereo unspecified) — 110-fold lower, 6 nM
- Fc1ccc([C@H](F)C2CCN(c3nc4cnncc4nc3NC3CC3)CC2)c(F)c1 — 30-fold lower, 22 nM
- Fc1ccc(CC2CCN(c3nc4cc(F)ccc4nc3NC3CC3)CC2)c(F)c1 — 9.3-fold lower, 72 nM
- CC(C)Nc1nc2cnncc2nc1N1CCC(Oc2ccc(OCF)cc2F)CC1 — 84-fold lower, 8 nM
- N#Cc1ccc(F)c(C(=O)C2CCN(c3nc4cnccc4nc3NC3CC3)CC2)c1 — 9.7-fold lower, 69 nM
- COc1cc2nc(NC3CC3)c(N3CCC(Cc4ccc(F)cc4F)CC3)nc2cn1 — 23-fold lower, 29 nM
- Clc1ccc(Cl)c(CN2CCN(c3nc4ccccc4nc3Nc3ccccn3)CC2)c1 — 4.9-fold higher, 3290 nM
- Fc1cnc(Cl)c(CN2CCN(c3nc4ccccc4nc3NC3CC3)CC2)c1 — 30-fold higher, 20400 nM
- Fc1cc(F)c(OC2CCN(c3nc4cnccc4nc3NC3CC3)CC2)c(F)c1 — 3.9-fold lower, 170 nM
- N#Cc1ccc2nc(NCCC(F)(F)F)c(N3CCC(Oc4ccc(F)cc4F)CC3)nc2c1 — 4.2-fold lower, 160 nM
- COc1ccccc1C(=O)C1CCN(c2nc3cnccc3nc2NC2CC2)CC1 — 2.9-fold higher, 1920 nM
- CC[C@H](C)Nc1nc2cnncc2nc1N1CCC(Oc2ccc(OC)cc2F)CC1 — 32-fold lower, 21 nM
- COc1cccc(CN2CCN(c3nc4cnncc4nc3NC(C)C)CC2)c1 — 15-fold lower, 44 nM
- CC(C)Nc1nc2cc(C(=O)N(C)C)ncc2nc1N1CCC(C(=O)c2cc(F)cc(F)c2)CC1 — 42-fold lower, 16 nM
- CSc1ccc(F)c(C(=O)C2CCN(c3nc4cnccc4nc3NC3CC3)CC2)c1 — within 1.5-fold, 478 nM
